Assay results reported in PMC8233204, “Cardiac myosin-binding protein C interaction with actin is inhibited by compounds identified in a high-throughput fluorescence lifetime screen” (The Journal of Biological Chemistry, 2021).
“Also recorded” adds a separate entry of the source. Read-outs that look alike come from different tables or passages of the source.

Columns and labels:
ErIA-actin = biological target: T1, ErIA-actin (Oryctolagus cuniculus, UniProt P68135); test: Transient phosphorescence anisotropy (TPA) of ErIA-actin alone; format: biochemical, rabbit; conditions: concentration not given
T1 construct: Actin was prepared from rabbit skeletal muscle by extracting acetone powder; from tissue; host or cells: rabbit skeletal muscle (acetone powder)
Description: […] These were added together with glucose catalase/oxidase to prevent photobleaching, and TPA was performed at 25 °C to determine anisotropy values ([7]).

[1] = biological target: FMAL-actin (F-actin from rabbit skeletal muscle labeled at Cys-374 with fluorescein-5-maleimide) (rabbit) (UniProt P68135); test: FRET or BRET; TR-FRET; 1 μM F-actin labeled (to 10%) with FMAL (donor) with 0-20 μM TMR-C0-C2^Cys225 (acceptor) ±PKA; M-ABB
[2] = biological target: FMAL-actin (F-actin from rabbit skeletal muscle labeled at Cys-374 with fluorescein-5-maleimide) (rabbit) (UniProt P68135); test: as above; remark: listed apart in the source
[3] = biological target: T2, FMAL-actin:TMR-C0-C2^Cys225 (Homo sapiens, UniProt Q14896, C239L/C249S/C426T/C436V/C443S/H225C); test: FMAL-actin-TMR-C0-C2 TR-FRET binding assay; conditions: 50 μM compound; 1 μM FMAL-actin, 2 μM TMR-C0-C2; both nonphosphorylated and phosphorylated C0-C2
T2 construct: N-terminal domains C0 through C2 (C0-C2), containing the proline/alanine-rich linker (P/A) and the M-domain (M); 6x His (N, cleaved yes); TEV protease cleavage site (N, cleaved yes); made in house; host or cells: E. coli BL21DE3 (C0-C2^Cys225); actin purified from rabbit skeletal muscle
T2 sequence (Q14896 1-451 H225C/C239L/C249S/C426T/C436V/C443S limits assumed): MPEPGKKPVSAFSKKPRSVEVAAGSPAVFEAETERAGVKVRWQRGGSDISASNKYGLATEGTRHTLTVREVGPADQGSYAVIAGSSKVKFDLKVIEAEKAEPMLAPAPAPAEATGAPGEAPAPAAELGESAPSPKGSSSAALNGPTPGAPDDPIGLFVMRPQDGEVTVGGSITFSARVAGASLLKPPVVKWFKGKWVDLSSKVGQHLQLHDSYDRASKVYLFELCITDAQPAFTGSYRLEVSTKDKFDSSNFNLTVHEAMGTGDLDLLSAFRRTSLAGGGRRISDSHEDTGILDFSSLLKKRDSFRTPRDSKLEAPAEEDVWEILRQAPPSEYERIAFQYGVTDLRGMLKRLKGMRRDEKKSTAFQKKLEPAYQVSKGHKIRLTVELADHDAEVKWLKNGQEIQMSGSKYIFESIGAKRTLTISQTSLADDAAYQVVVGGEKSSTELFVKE
Description: In total, 1 μM F-Actin labeled (to 10%) on Cys-374 with FMAL (donor fluor) was incubated with increasing concentrations (0–20 μM) of C0-C2^Cys225 unlabeled (for donor only (D) data acquisition) or labeled to 95% with TMR (acceptor fluor) (for donor–acceptor (DA) data). Lifetimes of FMAL-actin were determined for D and DA at each concentration of C0-C2^Cys225. TR-FRET efficiency (1 – (τDA/τD)) was determined for each C0-C2^Cys225 concentration. The binding curve was generated from data from two separate preparations of actin and C0-C2^Cys225. Testing of compound effects by TR-FRET was similarly done at 1 μM FMAL-actin with unlabeled C0-C2^Cys225 (D) and TMR-C0-C2^Cys225 (DA), both at 2 μM.

[4] = biological target: C0-C2 portion of human cMyBP-C (Homo sapiens, UniProt Q14896); test: Isothermal titration calorimetry (ITC) of compounds binding to C0-C2
C0-C2 portion of human cMyBP-C, sequence (Q14896 1-451 limits assumed): as the sequence (Q14896 1-451 H225C/C239L/C249S/C426T/C436V/C443S limits assumed) above, with C225H, L239C, S249C, T426C, V436C, S443C counted along it

[5] = biological target: T3, AF568-actin:C0-C2 (actin-cMyBP-C binding) (Homo sapiens, UniProt Q14896); test: TR-F concentration-response assay, AF568-actin with C0-C2; conditions: 2 μM C0-C2
T3 sequence (Q14896 1-451 limits assumed): as the sequence (Q14896 1-451 H225C/C239L/C249S/C426T/C436V/C443S limits assumed) above, with C225H, L239C, S249C, T426C, V436C, S443C counted along it
Description: (§5) Using the same conditions as in the primary screen, we determined the concentration dependence of each of the three Hit compounds on the AF568-actin lifetime effects. […] In a separate dose–response assay utilizing 3 μM C0-C2, we compared the effects of the compounds on nonphosphorylated and phosphorylated C0-C2. […] In the second dose-response assay, 3 μM instead of 2 μM C0-C2 was used in the second dose–response assay so that effects of compounds on phosphorylated C0-C2 could be readily detected, as phosphorylation of C0-C2 itself (in the absence of compounds) reduces binding to actin.
The Hit compounds were dissolved in DMSO to make a 10 mM stock solution, which was serially diluted in 96-well mother plates. Hits were screened at eight concentrations (0.5–100 μM). Compounds (1 μl) were transferred from the mother plates into 384-well plates using a Mosquito HV liquid handler (TTP Labtech Ltd). The same procedure of dispensing as for the pilot screening was applied in the TR-F concentration–response assays. Concentration dependence of the TR-F change was fitted using the Hill equation ([38]):(3) τ=τo+τmaxC^α/EC50α+C^α where τ and τ0 are TR-F in the presence and in the absence of the compound, τmax is the maximum effect, C is the compound concentration, EC50 is the compound concentration for which 50% of maximum effect is obtained, and α is the Hill coefficient of sigmoidicity.

AF568-actin = biological target: T4, AF568-actin (Oryctolagus cuniculus, UniProt P68135); test: TR-F high-throughput screen, AF568-actin alone (no C0-C2); format: binding, rabbit; conditions: 10 μM compound; 1 μM AF568-actin alone
T4 construct: Actin was prepared from rabbit skeletal muscle by extracting acetone powder; from tissue; host or cells: rabbit skeletal muscle (acetone powder)
Description: (§1) The 1280 LOPAC compounds were received in 96-well plates (LOPAC^1280, Sigma-Aldrich) and were reformatted into 1536-well flat, black-bottom polypropylene plates (Greiner Bio-One). In total, 50 nl of compounds was dispensed using an automated Echo 550 acoustic liquid dispenser (Labcyte). LOPAC compounds were formatted into plates, with the first two and last two columns loaded with 50 nl of DMSO and used for compound-free controls. The final concentration of the compounds was 10 μM. These assay plates were then heat-sealed using a PlateLoc Thermal Microplate Sealer (Agilent Technologies) and stored at –20 °C. Before screening, compound plates were equilibrated to room temperature (25 °C). In total, 1 μM AF568-labeled actin without or with 2 μM C0-C2 in M-ABB was dispensed by a Multidrop Combi Reagent Dispenser (Thermo Fisher Scientific) into the 1536-well assay plates containing the compounds. Plates were incubated at room temperature for 20 min before recording the data with the FLTPR. Plates were rescanned after 120 min incubation.
(§2) Two full screens were done using different batches of AF568-labeled actin, C0-C2, and test compounds.
(§3) Following data acquisition, TR-F waveforms observed for each well were convolved with the IRF to determine the lifetime (τ) (Equation 1) by fitting to a single-exponential decay ([15], [35]).
(§4) A compound was considered a Hit if it was in the top 25 compounds in each of two independent screenings of the LOPAC. Top compounds were those that increased the lifetime of AF568-actin when C0-C2 was present (indicating inhibition of C0-C2 binding). Compounds that altered AF568-actin lifetime when C0-C2 was not present by >4 SD relative to that of the control samples (those exposed to 0.1% DMSO) were first removed from the analysis. […] Any change in lifetime induced by a compound on AF568-actin alone was then subtracted from the effect of the compound on AF568-actin when C0-C2 was present. The resulting C0-C2-dependent change for all compounds was ranked.

[6] = biological target: AF568-actin:phosphorylated (by PKA) C0-C2 (Homo sapiens, UniProt Q14896); test: TR-F concentration-response assay, AF568-actin with PKA-phosphorylated C0-C2
AF568-actin:phosphorylated (by PKA) C0-C2, sequence (Q14896 1-451 limits assumed): as the sequence (Q14896 1-451 H225C/C239L/C249S/C426T/C436V/C443S limits assumed) above, with C225H, L239C, S249C, T426C, V436C, S443C counted along it
Description: as §5
C0-C2 was treated with 7.5 ng PKA/μg C0-C2 at 30 °C for 30 min.
The Hit compounds were dissolved in DMSO to make a 10 mM stock solution, which was serially diluted in 96-well mother plates. Hits were screened at eight concentrations (0.5–100 μM). Compounds (1 μl) were transferred from the mother plates into 384-well plates using a Mosquito HV liquid handler (TTP Labtech Ltd). The same procedure of dispensing as for the pilot screening was applied in the TR-F concentration–response assays.

C0-C2 = biological target: T5, C0-C2 (Homo sapiens, UniProt Q14896); test: Visible light scattering (C0-C2 aggregation); conditions: 2 or 10 μM C0-C2 mixed with compound for 20 min
T5 construct: N-terminal domains C0 through C2 (C0-C2), containing the proline/alanine-rich linker (P/A) and the M-domain (M); 6x His (N, cleaved yes); TEV protease cleavage site (N, cleaved yes); made in house; host or cells: E. coli BL21DE3
T5 sequence (Q14896 1-451 limits assumed): as the sequence (Q14896 1-451 H225C/C239L/C249S/C426T/C436V/C443S limits assumed) above, with C225H, L239C, S249C, T426C, V436C, S443C counted along it
Description: All three drugs were tested for causing C0-C2 to aggregate by measuring absorbance in the visible range beyond the absorption of protein or the drugs themselves. Observed absorbance in these wavelengths is actually loss of transmitted light due to light scattering from aggregated C0-C2. 2 or 10 μM of C0-C2 was mixed with 20 μM of suramin, NF023, or ATA for 20 min and wavelengths 250–600 nm were scanned using a Beckman Coulter DU730 UV/Vis Spectrophotometer to determine optical density. The same was done with 2 or 10 μM of C0-C2 and 20 μM of suramin, NF023, or ATA alone.

F-actin = biological target: T6, F-actin (Oryctolagus cuniculus, UniProt P68135); test: ITC of compounds with actin alone; format: binding, rabbit; conditions: actin alone
T6 construct: Actin was prepared from rabbit skeletal muscle by extracting acetone powder; from tissue; host or cells: rabbit skeletal muscle (acetone powder)
Description: The titration of compounds binding to cMyBP-C was performed on an Affinity ITC (TA Instruments). Each compound in M-ABB buffer (2000–3000 μM) was titrated into C0-C2 in M-ABB buffer (100 μM, 350 μl). For the titration, a preliminary 2.5-μl injection (ignored in data analysis) was followed by 19–39 subsequent 2.5-μl injections with 4 min waits between each injection. The reference cell was filled with distilled water. To account for heat changes of dilution and mechanical mixing, binding data were corrected by subtraction of the final plateau injection values (when binding is complete) prior to curve fitting. Corrected binding data was processed using the NanoAnalyze analysis software (TA Instruments).
Figure S2. ITC of Suramin binding to actin alone. (A) Titration of 100 µM F-actin (in 350 µl) with 40 2.5
µl injections of 3,000 µM Suramin. (B) Fitted ITC binding curve for Suramin binding. Binding to actin was
for Suramin with actin alone (Kd ~200 µM).
(1 picture or pasted object on this page, not shown here)

[7] = biological target: T3, AF568-actin:C0-C2 (actin-cMyBP-C binding); test: TR-F high-throughput screen of LOPAC library, AF568-actin with C0-C2
Description: as §1, §2, §3, §4

ErIA-actin + C0-C2 = biological target: T7, ErIA-actin + C0-C2 (Homo sapiens, UniProt Q14896); test: Transient phosphorescence anisotropy (TPA) of ErIA-actin with C0-C2; format: biochemical; conditions: 1 μM ErIA-actin, 2 μM C0-C2; actin alone 0.033 ± 0.001
T7 construct: N-terminal domains C0 through C2 (C0-C2), containing the proline/alanine-rich linker (P/A) and the M-domain (M); 6x His (N, cleaved yes); TEV protease cleavage site (N, cleaved yes); made in house; host or cells: E. coli BL21DE3 (C0-C2); actin purified from rabbit skeletal muscle
T7 sequence (Q14896 1-451 limits assumed): as the sequence (Q14896 1-451 H225C/C239L/C249S/C426T/C436V/C443S limits assumed) above, with C225H, L239C, S249C, T426C, V436C, S443C counted along it
Description: The same mixtures were tested in the presence of 2 μM C0-C2. These were added together with glucose catalase/oxidase to prevent photobleaching, and TPA was performed at 25 °C to determine anisotropy values ([7]).

[8] = single titration shown in Fig. 4
[9] = 10 μM compound, 1 μM AF568-actin, 2 μM C0-C2
[10] = Δτ actin+C0-C2 after subtracting effect on actin alone

O=C(NCCO)c1cccc(-c2cc(Nc3ccc(OC(F)(F)F)cc3)ncn2)c1 [GNF-5]
effect on actin anisotropy (TPA), control compound (ErIA-actin): does bind actin and changes its anisotropy

TMR-C0-C2^Cys225 phosphorylated by PKA (from UniProt Q14896 1-1274) (domain or fragment)
Kd [1]: 3 µM | Kd [2]: 8 µM

TMR-C0-C2^Cys225 (single-cysteine C0-C2 of human cMyBP-C labeled with tetramethylrhodamine at Cys225) (from UniProt Q14896 1-1274) (domain or fragment)
Kd [1]: 1 µM | Kd [2]: 2.6 µM | donor lifetime τDA of FMAL-actin with 20 μM TMR-C0-C2^Cys225 (τD = 4.2 ns) [2]: 2 ns

O=C(Nc1cccc(C(=O)Nc2ccc(S(=O)(=O)O)c3cc(S(=O)(=O)O)cc(S(=O)(=O)O)c23)c1)Nc1cccc(C(=O)Nc2ccc(S(=O)(=O)O)c3cc(S(=O)(=O)O)cc(S(=O)(=O)O)c23)c1 [NF023]
TR-FRET measured binding of C0-C2 to actin, effect of compound [3]: almost completely eliminated | ITC ΔS ([4]; Table 1 average, no unit in table (Fig. 4: J/mol•K)): −19.2 | ITC ΔH ([4]; Table 1 average, no unit in table (Fig. 4: kJ/mol)): −30.2 | ITC ΔG ([4]; Table 1 average, unit not given): −24.6 | ITC n (stoichiometry, compound per C0-C2) ([4]; average of two preparations): 2.1 | Kd ([4]; compound binding to C0-C2, mean ± SE, two protein preparations, read-out: ITC Kd): 42 ± 3.4 µM | ITC n (fitted curve of Figure 4) [4, 8]: 2.6 | ITC ΔH (fitted curve of Figure 4) [4, 8]: -7.43 kcal/mol | ITC ΔS (fitted curve of Figure 4) [4, 8]: 20.9 J/mol•K | Kd ([4]; single titration shown in Fig. 4, 100 μM C0-C2, read-out: ITC Kd (fitted curve of Figure 4)): 35.1 µM | EC50 ([5]; 1 μM AF568-actin, mean ± SE): 16.3 ± 1.2 µM | TR-F n ([5]; n not defined in table): 3.2 | Actin Drug Δτ, Screen 1 (AF568-actin): -0.03 ns | Actin Drug Δτ, Screen 2 (AF568-actin): 0.01 ns | Actin Drug Δτ, Sub-optimal Screen 3 (AF568-actin): -0.02 ns | Actin Drug Δτ, Sub-optimal Screen 4 (AF568-actin): 0.01 ns | TR-F+PKA n ([6]; 3 μM phosphorylated C0-C2, n not defined in table): 1.8 | EC50 ([6]; read-out: TR-F+PKA EC50, 1 μM AF568-actin, 3 μM PKA-phosphorylated C0-C2, mean ± SE): 17.5 ± 11.8 µM | absorbance in the visible range (light scatter, C0-C2 aggregation) (C0-C2): did not detect absorption | ITC interaction with F-actin (in words) (F-actin): not apparent; also recorded: no interaction | Actin-MyBP-C Drug Δτ, Screen 1 [7, 9]: 0.058 ns | Actin-MyBP-C Drug Δτ, Screen 2 [7, 9]: 0.07 ns | Actin-MyBP-C Drug Δτ, Sub-optimal Screen 3 [7, 9]: 0.06 ns | Actin-MyBP-C Drug Δτ, Sub-optimal Screen 4 [7, 9]: 0.04 ns | average change in lifetime, SD above the median of all compounds not excluded ([7]; 10 μM compound, 1 μM AF568-actin, 2 μM C0-C2, average of screens): 3.8 SD | Difference, Screen 1 [7, 10]: 0.09 ns | Difference, Screen 2 [7, 10]: 0.06 ns | Difference, Sub-optimal Screen 3 [7, 10]: 0.08 ns | Difference, Sub-optimal Screen 4 [7, 10]: 0.03 ns

C0-C2: recombinant N-terminal fragment (domains C0 through C2) of human cMyBP-C
actin's final anisotropy in the presence of C0-C2 (ErIA-actin + C0-C2): 0.071 ± 0.003
